As a reminder, the IC50 is the midpoint of a concentration-inhibition curve. Lower therefore signals greater potency.

In the assay the target is T1, human KSP motor domain (KSP(367H)) (Homo sapiens, UniProt P52732).
T1 construct: were used to amplify the motor domain and the neck linker region; made in house; host or cells: E. coli BL21 (DE3), pRSETa vector
T1 sequence (P52732 18-359 limits assumed): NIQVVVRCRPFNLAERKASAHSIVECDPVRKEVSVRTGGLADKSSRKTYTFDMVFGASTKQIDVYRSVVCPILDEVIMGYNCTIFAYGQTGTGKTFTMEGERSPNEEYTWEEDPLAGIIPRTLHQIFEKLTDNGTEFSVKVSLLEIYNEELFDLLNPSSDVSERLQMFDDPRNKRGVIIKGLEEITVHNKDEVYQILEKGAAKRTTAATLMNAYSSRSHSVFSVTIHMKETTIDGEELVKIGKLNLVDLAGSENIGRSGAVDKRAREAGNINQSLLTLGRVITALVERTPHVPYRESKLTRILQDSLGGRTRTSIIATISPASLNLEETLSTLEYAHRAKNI
Description: Kinesin ATPase In Vitro Assay. The class given is biochemical. Conditions: kinesin motor domain with microtubules, 1 mM ATP, 23° C.; free phosphate by quinaldine red/ammonium molybdate, absorbance 540 nm. From the text:
I. Kinesin ATPase In Vitro Assay
Cloning and Expression of Human Poly-Histidine Tagged KSP Motor Domain (KSP(367H))
Plasmids for the expression of the human KSP motor domain construct were cloned by PCR using a pBluescript full length human KSP construct (Blangy et al., Cell, vol.83, pp 1159–1169, 1995) as a template. The N-terminal primer 5′-[…] (SEQ.ID.NO.: 1) and the C-terminal primer 5′-[…] […] (SEQ.ID.NO.: 2) were used to amplify the motor domain and the neck linker region. The PCR products were digested with AseI and XhoI, ligated into the NdeI/XhoI digestion product of pRSETa (Invitrogen) and transformed into E. coli BL21 (DE3).
Cells were grown at 37° C. to an OD600 of 0.5. […]
The kinesin motor domain is incubated with microtubules, 1 mM ATP (1:1 MgCl2: Na-ATP), and compound at 23° C. in buffer containing 80 mM K-HEPES (pH 7.0), 1 mM EGTA, 1 mM DTT, 1 mM MgCl2, and 50 mM KCl. […] Free phosphate from the ATP hydrolysis reaction is measured via a quinaldine red/ammonium molybdate assay by adding 150 μl of quench C buffer containing a 2:1 ratio of quench A:quench B. Quench A contains 0.1 mg/ml quinaldine red and 0.14% polyvinyl alcohol; quench B contains 12.3 mM ammonium molybdate tetrahydrate in 1.15 M sulfuric acid. The reaction is incubated for 10 minutes at 23° C., and the absorbance of the phospho-molybdate complex is measured at 540 nm.

Turning to `CCC(c1nc2c(c(=O)n1Cc1ccccc1)CCC2)N(CCN(C)C)C(=O)c1ccc(Br)cc1` (stereo not shown) [1-5, N-[1-(3-benzyl-4-oxo-4,5,6,7-tetrahydro-3H-cyclopenta[d]pyriinidin-2-yl)propyl]-4-bromo-N-[2-(dimethylamino)ethyl]benzamide], the IC50 was at most 50 µM.

The values are drawn from patent publication US7192949B2, “Substituted bicyclic pyrimidinones as a mitotic kinesin KSP inhibitors” (Merck & Co., Inc., priority 2001, dated 2007).
